# Assay results published in patent US7914830B2, “Composition for inhibiting thrombosis” (Taiyo Kagaku Co., Ltd, priority 2003, dated 2011).
# Tests used:
# [1] = system: platelet rich plasma of a normal individual; assay: Prothrombin time (PT), anti-extrinsic blood coagulant activity, Hizikia fusiforme (Test Examples F-1, F-2); type: biochemical, human
# Experimental: The anti-extrinsic blood coagulant activity of the extrinsic blood coagulation preventing composition of the present invention was obtained as follows: Ten microliters of a sample of a heparin test solution adjusted by […] rich plasma of a normal individual using a coagulometer (manufactured by SYSMEX CORPORATION) to react the components at 37° C. for 1 minute. Thereafter, 100 μL of a PT reagent (manufactured by INTERNATIONAL REAGENTS CORPORATION) was added thereto, and the time period by which plasma was coagulated was measured, i.e. PT was measured. From the relationship between the concentration of this heparin test solution and the PT, the following numerical formula for a heparin-like activity value (U/mg) was obtained.
# Thereafter, a sample was prepared by diluting the extrinsic blood coagulation preventing composition A of the present invention with distilled water so as to have a concentration of 0.078, 0.156, 0.313, 0.625 or 1.25 mg/mL calculated as a solid content. The PT was measured in the same manner and the resultant value was plugged into the above numerical formula to give a heparin-like activity value relative to heparin (1 U/mL) at each sample concentration.
# In addition, a PT ratio was calculated at each sample concentration according to the following equation using a heparin test solution concentration of 0 mg/mL as the control. PT Ratio=PT When Adding Sample/PT of Control(Heparin Test Solution Concentration:0 mg/mL)
# The PTs were determined for the extrinsic blood coagulation preventing composition A obtained in Example F-1, the extrinsic blood coagulation preventing compositions B, C, D and E obtained in Example F-2, and the extrinsic blood coagulation preventing composition F obtained in Example F-3 at a concentration of 0.2 mg/mL calculated as a solid content. Thereafter, the resultant value was plugged into the calculation formula for a heparin-like activity value (U/mg) in Test Example F-1, and the heparin-like activity value and the PT ratio of each extrinsic blood coagulation preventing composition were obtained. In addition, a sample was prepared using the supernatant fraction with 80% ethyl alcohol in Example F-2 in the same manner, and the heparin-like activity value and the PT ratio were obtained.
# [2] = system: platelet poor plasma (PPP) separated from human blood; assay: APTT and heparin-like activity, Hizikia fusiforme thrombus preventing compositions (Test Examples F′-1, F′-2); type: biochemical
# Experimental: The thrombus preventing effect of the thrombus preventing composition A of the present invention was evaluated by measuring the APTT with the coagulometer utilizing platelet poor plasma (PPP) separated from human blood.
# (§1) Ten microliters of a sample of which amount was adjusted so as to have a concentration of the thrombus preventing composition A of the present invention of 0.075, 0.15, 0.3 or 0.5 mg/mL calculated as a solid content, and 40 μL of PPP were placed in a reaction cuvette to react the components at 37° C. for 1 minute. Thereafter, 50 μL of an APTT reagent (manufactured by INTERNATIONAL REAGENTS CORPORATION) was added to further react the components at 37° C. for 2 minutes, and 50 μL of 25 mM calcium chloride was then added thereto. The time period (seconds) by which plasma was coagulated was measured, and defined as APTT.
# Here, as the control, APTT was measured using heparin adjusted to have a concentration of 0.05, 0.1, 0.2 and 0.3 U/mL as a sample in the same manner. The following calculation formula for a heparin-like activity value (U/mg) was obtained from this relationship between the concentration of this heparin and APTT of heparin, and the resultant value was plugged into this calculation formula to give a heparin-like activity value relative to heparin (1 U/mL) at each sample concentration.
# The APTTs were measured for the thrombus preventing composition A obtained in Example F′-1, the thrombus preventing compositions B, D and E obtained in Example F′-2, and the thrombus preventing composition F obtained in Example F′-3 at a concentration of 0.2 mg/mL calculated as a solid content in the same manner as in Test Example F′-1. Thereafter, the resultant value was plugged into the calculation formula for the heparin-like activity value (U/mg) in Test Example F′-1 to give a heparin-like activity value of each thrombus preventing composition. In addition, a sample was prepared in the same manner for the supernatant fraction with 80% ethanol in Example F′-2, and its heparin-like activity value was obtained.
# [3] = system: platelet poor plasma (PPP) separated from human blood; assay: APTT and heparin-like activity, enzymatically treated Hizikia fusiforme compositions (Test Examples F″-1, F″-2); type: biochemical
# Experimental: The thrombus preventing effect of the composition A for preventing thrombus of the present invention was evaluated by measuring the APTT with a coagulometer (manufactured by SYSMEX CORPORATION) utilizing platelet poor plasma (PPP) separated from human blood.
# as §1, with “concentration of 0.075, 0.15,” for “concentration of the thrombus preventing composition A of the present invention of 0.075, 0.15,”, “and 40 μl of PPP” for “and 40 μL of PPP”, “was added thereto to further” for “was added to further”, “time period (second) by which” for “time period (seconds) by which”
# Here, as the control, the APTT was measured in the same manner using heparin adjusted to a concentration of 0.05, 0.1, 0.2 or 0.3 U/mL as a sample. The following calculation formula for a heparin-like activity value (U/mg) was obtained from the relationship between the concentration of heparin and the APTT of heparin. The resultant value was plugged into the calculation formula to give a heparin-like activity value relative to heparin (1 U/mL) at each sample concentration.
# The APTTs were measured for the composition A for preventing thrombus obtained in Example F″-1, the compositions B and C for preventing thrombus obtained in Example F″-2, and the comparative composition obtained in Comparative Example F″-1 in the same manner as in Test Example F″-1 at a concentration of 0.2 mg/mL calculated as a solid content. Thereafter, the resultant value was plugged into the calculation formula for a heparin-like activity value (U/mg) in Test Example F″-1, to give a heparin-like activity value of each composition for preventing thrombus.
# [4] = system: platelet poor plasma (PPP) separated from human blood; assay: APTT and heparin-like activity, hibiscus anti-blood coagulant compositions (Test Examples C-1 to C-3); type: biochemical
# Experimental: Ten microliters of heparin adjusted to a concentration of 0.05, 0.1, 0.2 or 0.4 U/mL and 40 μL of platelet poor plasma (PPP) separated from human blood were placed in a reaction cuvette, and the components were reacted at 37° C. for 1 minute. Thereafter, 50 μL of an APTT reagent (manufactured by INTERNATIONAL REAGENTS CORPORATION) was added thereto to further react at 37° C. for 2 minutes, and 50 μL of 25 mM calcium chloride was then added. The time period by which plasma was coagulated (APTT; second) was measured with a coagulometer (manufactured by SYSMEX CORPORATION). In order to evaluate the anti-blood coagulant effect of the anti-blood coagulant composition of the present invention, a calculation formula for the heparin-like activity value (U/mg) was obtained from the relationship between the heparin concentration and the APTT of heparin.
# Thereafter, 50 μL of an APTT reagent (manufactured by INTERNATIONAL REAGENTS CORPORATION) was added to further react the components at 37° C. for 2 minutes.
# [5] = system: platelet poor plasma (PPP) separated from human blood; assay: APTT anti-coagulant activity of carrageenan antithrombotic agents (Test Example G-1); type: biochemical; conditions: for Anti-Coagulant Activity: relative to water control
# Experimental: The anti-coagulant activity of the antithrombotic agent of the present invention was assayed with a coagulometer (manufactured by SYSMEX CORPORATION) utilizing platelet poor plasma (PPP) separated from human blood.
# Ten microliters of a sample, 25 microliters of an APTT reagent (manufactured by INTERNATIONAL REAGENTS CORPORATION), and 25 microliters of 10% cephalin were placed into a reaction cuvette to react the components at 37° C. for 3 minutes, and 50 microliters of PPP was placed in the reaction cuvette to react the components for 2 minutes. Finally, 50 microliters of 25 millimolar calcium chloride was added to coagulate the mixture obtained. The time period (second) by which plasma was coagulated was measured, and defined as APTT.
# Here, water was used as the control, and the APTT was measured in the same manner. The anti-coagulant activity (%) was calculated from the measured APTT of the sample, relative to that of the control according to the following numerical formula. Anti-Coagulant Activity(%)=((APTT of Sample−APTT of Control)/APTT of Control)×100 […]
# [6] = heparin concentration 0.05 U/mL
Substance,APTT ([5]; concentration 0.5 mg/mL),Anti-Coagulant Activity ([5]; concentration 0.5 mg/mL),APTT ([5]; concentration 2.5 mg/mL),Anti-Coagulant Activity ([5]; concentration 2.5 mg/mL),APTT ([5]; concentration 5.0 mg/mL),Anti-Coagulant Activity ([5]; concentration 5.0 mg/mL),also measured
heparin,,,,,,,"PT ([1]; heparin concentration 0.0625 U/mL): 11.6 s; PT ([1]; heparin concentration 0.125 U/mL): 11.8 s; PT ([1]; heparin concentration 0.25 U/mL): 12.3 s; PT ([1]; heparin concentration 0.5 U/mL): 13.2 s; PT ([1]; heparin concentration 1 U/mL): 18.1 s; APTT [2, 6]: 39.6 s; APTT ([2]; heparin concentration 0.1 U/mL): 50.9 s; APTT ([2]; heparin concentration 0.2 U/mL): 86.4 s; APTT ([2]; heparin concentration 0.3 U/mL): 180.2 s; APTT [3, 6]: 39.6 s; APTT ([3]; heparin concentration 0.1 U/mL): 50.9 s; APTT ([3]; heparin concentration 0.2 U/mL): 86.4 s; APTT ([3]; heparin concentration 0.3 U/mL): 180.2 s; APTT [4, 6]: 39.6 s; APTT ([4]; heparin concentration 0.1 U/mL): 50.9 s; APTT ([4]; heparin concentration 0.2 U/mL): 86.4 s; APTT ([4]; heparin concentration 0.4 U/mL): 180.2 s"
ι-carrageenan,162 s,260%,600 or more sec,1200 or more %,600 or more sec,1200 or more %,
κ-carrageenan,99 s,120%,491 s,991%,600 or more sec,1200 or more %,
λ-carrageenan,398 s,784%,600 or more sec,1200 or more %,600 or more sec,1200 or more %,
